Data from patent US10294202B2, “Pyrrolidinones as herbicides” (FMC Corporation, priority 2013, dated 2019).
Several values for one entry are separate records, joined by “and”; a condition that tells them apart may be missing. Identical values can stand only once.

How the values were obtained:
Experiment in all cases: Test G paddy mixture test (Colby)
ducksalad (HETLI) = type: in vivo, Heteranthera limosa; conditions: applied alone, 14 d; for HETLI Obsd. plant response rating (scale 0 to 100): flooded; for HETLI Obsd.: scale 0-100
Procedure: (§1) Seeds of small-flower umbrella […], Cyperus difformis) and […], Heteranthera limosa) were sown on the soil surface in two separate quadrants of 11-cm (4-inch) tubs filled with steam pasteurized Tama soil. Simultaneously, plantings of […], Echinochloa crus-galli) and transplanted japonica rice (ORYSA, Oryza sativa) were established in separate “plug” flats. […] Herbicide application timing was targeted at the 2.0 to 2.5 leaf stage and the plants were treated with test chemicals formulated in a non-phytotoxic solvent. Treated plants and controls were maintained in a greenhouse for 14 d, after which time all species were compared to controls and visually evaluated. Plant response ratings are summarized in Tables G1 through G12, and are based on a scale of 0 to 100 where 0 is no effect and 100 is complete control. A dash (-) response means no test result. Colby's Equation was used to determine the herbicidal effects expected from the mixtures. Colby's Equation (Colby, S. R. “Calculating Synergistic and Antagonistic Responses of Herbicide Combinations,” Weeds, 15(1), pp 20-22 (1967)) calculates the expected additive effect of herbicidal mixtures and for two active ingredients is of the form: Pa+b=Pa+Pb-(PaPb/100) where • Pa+b is the percentage effect of the mixture expected from additive contribution of the individual components: • Pa is the observed percentage effect of the first active ingredient at the same use rate as in the mixture, and • Pb is the observed percentage effect of the second active ingredient at the same use rate as in the mixture. In the following Tables, rates are shown in grams of active ingredient per […]); “Obsd.” is the observed effect. “Exp.” is the expected effect calculated from Colby's Equation.

barnyardgrass (ECHCG) = type: in vivo, Echinochloa crus-galli; conditions: applied alone, 14 d; for ECHCG Obsd. plant response rating (scale 0 to 100): flooded
Procedure: as §1

[1] = system: small-flower umbrella sedge (CYPDI); type: in vivo, Cyperus difformis; conditions: applied alone, 14 d; for CYPDI Obsd. plant response rating (scale 0 to 100): flooded; for CYPDI Obsd.: scale 0-100
Procedure: as §1

[2] = system: transplanted japonica rice (ORYSA); type: in vivo, Oryza sativa; conditions: applied alone, 14 d
Procedure: as §1

`CCN(C(=O)n1nnn(-c2ccccc2Cl)c1=O)C1CCCCC1` [Fentrazamide] was tested, and the “HETLI Obsd. plant response rating (scale 0 to 100)” value (ducksalad (HETLI); 100 g a.i./ha) was 85 and 100, the “HETLI Obsd. plant response rating (scale 0 to 100)” value (ducksalad (HETLI); 200 g a.i./ha) was 100 and the “ECHCG Obsd. plant response rating (scale 0 to 100)” value (barnyardgrass (ECHCG); 100 g a.i./ha) was 50 and 85. For the same compound, the “ECHCG Obsd. plant response rating (scale 0 to 100)” value (barnyardgrass (ECHCG); 200 g a.i./ha) was 95 and 85, the “CYPDI Obsd. plant response rating (scale 0 to 100)” value ([1]; 100 g a.i./ha) was 90 and 100 and the “CYPDI Obsd. plant response rating (scale 0 to 100)” value ([1]; 200 g a.i./ha) was 100. The “ORYSA Obsd. plant response rating (scale 0 to 100)” value ([2]; 100 g a.i./ha, flooded) was 0.

In the case of `CN(C(=O)COc1nc2ccccc2s1)c1ccccc1` [Mefenecet], the “HETLI Obsd.” value (ducksalad (HETLI); 300 g a.i./ha) is reported as 100 and the “CYPDI Obsd.” value ([1]; 300 g a.i./ha) is reported as 100.

`COCc1cccc(C(O)c2nc(OC)cc(OC)n2)c1NS(=O)(=O)C(F)F` (stereo not shown) [Pyrimisulfan] was tested, and the “HETLI Obsd.” value (ducksalad (HETLI); 20 g a.i./ha) was 100, the “ECHCG Obsd.” value (barnyardgrass (ECHCG); 20 g a.i./ha, scale 0-100) was 75 and 80 and the “CYPDI Obsd.” value ([1]; 20 g a.i./ha) was 98 and 100. For the same compound, the “ORYSA Obsd.” value ([2]; 20 g a.i./ha, scale 0-100) was 25 and 20.
